Assays:
RNA ac4C modification = test: ac4C RNA dot blot in SiHa cells; type: cell-based, human; conditions: 20 μM, 36 h, vs Remodelin-treated and NAT10-knockdown groups
Experimental: RNA was extracted from cells via an RNA extraction kit (TransGen, China) and denatured by heating to 65 °C for 5 min in the presence of 2× RNA denaturation buffer (Solarbio, China) followed by an equal amount of 20x SSC buffer (Beyotime, China). A nylon membrane (Yeasen, China) was used to immobilize the denatured RNA by dotting RNA samples onto the membrane and cross-linking the RNA to the membrane via UV light. The samples were stained with methylene blue and photographed. Furthermore, the membrane was blocked with 5% milk and incubated with an anti-ac4C primary antibody (1:1000, Abcam, US) for 12 h. After the unbound primary antibody was washed away, the membrane was incubated with a secondary antibody (1:6000, Elabscience, China). The membrane was then washed to remove unbound secondary antibodies, and a detection reagent (Bio-Rad, US) was added to visualize the RNA bands via chemiluminescence with a ChemiDoc MP Imaging System (Bio-Rad, US).

SiHa cells = test: SiHa cell viability IC50 (CCK-8); type: cell-based, human
Experimental: NAT10^± SiHa cells and SiHa cells treated with DMSO, Remodelin or NP1192 for 36 h were seeded into the wells of a 96-well microplate at identical densities of 2000 or 3000 cells per well. After the cells adhered to the well surface, 110 μL of a 1:10 mixture of CCK-8 reagent (Meilunbio, China) and RPMI 1640 medium was added to each well. The microplate was then incubated for another 2 h in the incubator, and the mixture was replaced with an equal volume of medium. A microplate reader (BioTek, US) was used to measure the absorption at a wavelength of 450 nm.

NAT10 = target: T1, NAT10 (Mus musculus, UniProt Q8K224); test: NAT10 degradation in U14 cells, Western blot; type: cell-based; conditions: murine U14 cervical cells, same treatment (20 μM), 36 h
T1 construct: nearly 70% reduction in the NAT10 protein content in murine U14 cervical cells after 36 h; endogenous in cells; host or cells: U14 (murine cervical carcinoma cell line, RRID:CVCL_9U56)
T1 sequence (Q8K224 1-1024): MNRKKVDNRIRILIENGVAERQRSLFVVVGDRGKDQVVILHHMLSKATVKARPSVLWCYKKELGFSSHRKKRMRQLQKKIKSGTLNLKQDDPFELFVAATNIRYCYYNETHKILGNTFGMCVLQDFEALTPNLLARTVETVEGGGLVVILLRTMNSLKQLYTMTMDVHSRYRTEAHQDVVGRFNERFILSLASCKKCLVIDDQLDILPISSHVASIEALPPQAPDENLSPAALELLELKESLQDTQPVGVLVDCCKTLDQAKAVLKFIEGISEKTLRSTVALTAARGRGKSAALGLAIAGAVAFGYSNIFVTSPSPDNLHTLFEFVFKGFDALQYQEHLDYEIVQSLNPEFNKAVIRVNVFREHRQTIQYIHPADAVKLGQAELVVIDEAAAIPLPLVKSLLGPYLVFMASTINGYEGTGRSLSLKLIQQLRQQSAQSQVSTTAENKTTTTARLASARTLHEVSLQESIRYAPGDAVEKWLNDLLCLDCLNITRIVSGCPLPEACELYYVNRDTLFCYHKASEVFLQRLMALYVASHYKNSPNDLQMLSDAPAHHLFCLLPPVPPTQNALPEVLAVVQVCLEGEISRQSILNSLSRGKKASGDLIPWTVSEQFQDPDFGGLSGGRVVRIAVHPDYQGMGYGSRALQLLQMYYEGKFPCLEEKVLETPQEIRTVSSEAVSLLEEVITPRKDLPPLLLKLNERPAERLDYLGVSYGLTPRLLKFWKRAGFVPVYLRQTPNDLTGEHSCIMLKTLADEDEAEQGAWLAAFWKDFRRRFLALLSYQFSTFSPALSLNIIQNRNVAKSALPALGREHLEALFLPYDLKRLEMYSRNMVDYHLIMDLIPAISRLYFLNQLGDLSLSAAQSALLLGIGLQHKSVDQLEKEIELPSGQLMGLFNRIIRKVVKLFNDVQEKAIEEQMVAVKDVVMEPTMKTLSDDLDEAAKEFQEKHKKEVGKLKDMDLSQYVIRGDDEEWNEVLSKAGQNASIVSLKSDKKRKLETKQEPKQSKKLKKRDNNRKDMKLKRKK
Experimental: The human CCa cell line SiHa and the normal epithelial foreskin fibroblast line HFF-1 were purchased from the Cell Bank of the Chinese Academy of Sciences. Additionally, murine cervical carcinoma cell line U14 (RRID:CVCL_9U56) was purchased from Boster Company. HFF-1 and U14 cells were cultured in Dulbecco’s modified Eagle’s medium (DMEM) (Gibco, USA) supplemented with 10% heat-inactivated fetal bovine serum (FBS; Gibco, USA), while SiHa cells were incubated in RPMI 1640 medium (Gibco, USA) in a humid atmosphere with 5% CO2 at 37 °C. For hypoxia exposure, the cells were incubated in a sealed culture tank containing 5% CO2 and 0.1% O2 (MGC, Japan) for 36 h.
RIPA lysis buffer (Beyotime, China) mixed with 1% protease inhibitor (Sigma, US) was added to the cells, and a sample of total protein was obtained and then loaded onto an 8% or 12% polyacrylamide gel. The gel was placed in a buffer solution, and an electric current was applied. The separated proteins were subsequently transferred from the gel onto a PVDF membrane. Next, the membrane was blocked with 5% milk for 1 h to prevent nonspecific antibody binding. […] The target proteins were detected via chemiluminescence with a ChemiDoc MP Imaging System (Bio-Rad, US).

normal organoids = test: Normal organoids exposed to NP1192; type: cell-based, human; conditions: following NP1192 exposure
Experimental: Organoid culture was performed according to previously established protocols. Briefly, we procured patient-derived tissue samples provided and technically manipulated by Accurate International Biotechnology Co., Ltd. Subsequently, these samples were subjected to mechanical and enzymatic dissociation to disaggregate the tissue into single cells or small clusters, while preserving cellular integrity. Following this initial step, the isolated cells or tissue fragments were embedded within a 3D ECM scaffold, such as Matrigel or collagen. The ECM scaffold served as a supportive substrate, promoting cellular self-organization and mimicking native tissue architecture. Additionally, a precisely formulated cocktail of growth factors, cytokines, and signaling molecules tailored to the specific tissue of interest was meticulously formulated and added to the culture medium to facilitate organoid growth and maintenance.

Structure (SMILES): N#Cc1ccc(-c2csc(N(CCCCCCC(=O)N3CCN(c4cccc5c4C(=O)N(C4CCC(=O)NC4=O)C5=O)CC3)N=C3CCCC3)n2)cc1 (centres unmarked) [NP1192]
- RNA ac4C levels (RNA ac4C modification): significant reduction in ac4C levels
- IC50 (SiHa cells; Homo sapiens, parental SiHa cells, 36 h, read-out: IC50, inhibition of SiHa cell viability): 7.81 µM
- IC50 lower than that of Remodelin (SiHa cells; SiHa cells): 26.8%
- reduction in NAT10 protein content (NAT10): ~70%
- architecture and cellular integrity of normal organoids (normal organoids): remained unaltered

Source: article PMC12670317, “Targeted NAT10 Degradation by PROTAC NP1192 Suppresses Hypoxia-Adaptive Glycolysis and Reinvigorates CD8^+ Effector T‑Cell Function for Synergistic Cancer Immunotherapy” (ACS Central Science, 2025)
